From patent publication US20150208654A1, “SEED COATING METHODS AND COMPOSITIONS WITH A RYANODINE RECEPTOR BINDING AGENT” (PIONEER HI-BRED INTERNATIONAL, INC., priority 2012, published 2015)

Columns and labels:
Type in all cases: in vivo
[1] = tested on: velvetbean caterpillar (VBC) (Anticarsia gemmatalis); assay: Field plot larvae count on soybean grown from treated seeds (area 2); conditions: 100 ug ai/seed, compared to untreated
Method: Soybean seeds were treated with chlorantraniliprole at rate of 100 ug ai/seed. The seeds were sown into soil bed fields (area 2) with a size of 8 meters by 8 meters in size, with an area of 64 m2. Plots were replicated 4 times. Evaluation was based on the total number of velvetbean caterpillar (VBC) (Anticarsia gemmatalis) larvae per meter at 37 to 63 days after planting (DAP), and converted to % larvae count reduction compared to the untreated.

[2] = tested on: velvetbean caterpillar (VBC) (Anticarsia gemmatalis); assay: Field plot larvae count on soybean grown from treated seeds (area 1); conditions: 100 ug ai/seed, compared to untreated
Method: Soybean seeds were treated with chlorantraniliprole at rate of 100 ug ai/seed. The seeds were sown into soil bed fields (area 1) with a size of 8 meters by 8 meters in size, with an area of 64 m2. Plots were replicated 4 times. Evaluation was based on the total number of velvetbean caterpillar (VBC) (Anticarsia gemmatalis) larvae per meter at 37 to 63 days after planting (DAP), and converted to % larvae count reduction compared to the untreated (Table 3). 50 days after planting, the VBC larvae reduction was still 73%, and after 63 days had activity at 35%.

[3] = tested on: velvetbean caterpillar (VBC) (Anticarsia gemmatalis); assay: Laboratory-field leaf bio-assay (LBF) on leaves of soybean plants grown from treated seeds; conditions: seed treatment 120 ug ai/seed, 2nd instar larvae
Method: Soybean seeds were treated with chlorantraniliprole at rates of 120 ug ai/seed. The seeds were sown into soil bed fields with a size of 6 meters in length and 4 rows of 40 cm in width. Leaf samples were collected at the 3rd to the 7th soybean trifoliate growth stage and brought to the laboratory. Laboratory-field leaf bio-assay (LBF) was performed for each soybean growth stage using velvetbean caterpillar (VBC) (Anticarsia gemmatalis) exposing the leaves to 2nd instar larvae stage. Each treatment group was replicated 4 times, and results (Table 2) are expressed as % larval mortality. At 43 days after planting, the VBC larval mortality rate was 88%.

CNC(=O)c1cc(Cl)cc(C)c1NC(=O)c1cc(Br)nn1-c1ncccc1Cl [Chlorantraniliprole, chlorantraniliprole]
% VBC larvae reduction ([1]; 37 DAP): 25% | % VBC larvae reduction ([1]; 50 DAP): 20% | % VBC larvae reduction ([1]; 63 DAP): 43% | % VBC larvae reduction ([2]; 37 DAP): 20% | % VBC larvae reduction ([2]; 50 DAP): 73% | % VBC larvae reduction ([2]; 63 DAP): 35% | % VBC larval mortality ([3]; 3rd trifoliate, 25 DAP): 100% | % VBC larval mortality ([3]; 4th trifoliate, 29 DAP): 94% | % VBC larval mortality ([3]; 5th trifoliate, 36 DAP): 91% | % VBC larval mortality ([3]; 7th trifoliate, 43 DAP): 88%
